Laboratory results taken from publication PMC7279231 (International Journal of Molecular Sciences, 2020).
Where two headings read alike, the source gives them in different places.

Key:
[1] = system: Balb/c 3T3 fibroblasts; experiment: LDH leakage assay (cellular membrane integrity), Balb/c 3T3; assay type: cell-based, murine
Protocol: (§1) The human hepatoma cell line (HepG2) was purchased from the American Type Culture Collection (ATCC HB-8065). These cells were cultured in Minimum Essential Medium Eagle (MEME) (ATCC). The murine fibroblast cell line (Balb/c 3T3 clone A31) was purchased from the American Type Culture Collection (ATCC CCL-163), and the cells were cultured in Dulbecco’s Modified Eagle’s Medium (DMEM) (ATCC). The media were supplemented with 10% BCS (Balb/c 3T3), 10% FBS (HepG2), 1% L-glutamine, and 1% antibiotic solution. The cells were maintained in 75-cm^2 cell culture flasks (NUNC, Roskilde, Denmark) in a humidified incubator, NuAire (Plymouth, MN, USA) at 37 °C and 5% CO2. The medium was refreshed every two days and the cells were trypsinized by 0.25% trypsin–0.02% EDTA after reaching 70–80% confluence. Then, cell suspensions at a density of 2 × 10^5 cells/mL (HepG2) and 5 × 10^4 cells/mL (Balb/c 3T3) were transferred to 96-well plates (100 μL/well) and incubated for 24 h before the exposure to the studied compounds.
(§2) As a control, cultured cells were grown in the absence of the studied compounds. Each concentration was tested in six replicates in three independent experiments. Cytotoxicity was assessed after 72 h of cell exposure to the compounds in darkness. The medium was not changed during the incubation time.
(§3) LDH leakage assay. The integrity of the plasma membrane was assessed through the test of lactate dehydrogenase (LDH) release, which was monitored using the commercially available Cytotoxicity Detection Kit (LDH) (Roche Diagnostics, Warsaw, Poland). The medium (100 μL/well) without cells was transferred into the corresponding wells of an optically clear 96-well flat-bottom microplate, and 100 μL of reaction mixture was added to each well. Then, the plates were incubated for 30 min at room temperature in darkness. After that time, 50 μL/well of 1 M HCl was added to stop the reaction. The absorbance was measured at 492 nm in a microplate reader (Synergy HTX multi-mode reader (BioTek® Instruments Inc., Winooski, VT, USA)) using a blank as a reference.
(§4) The study was performed in three independent experiments. […] Assessment of the cytotoxicity data used a one-way analysis of variance (ANOVA) followed by Dunnett’s post-hoc test, which was applied to determine significance relative to the negative control. The cytotoxicity concentration (IC20 and IC50) necessary for 20% and 50% inhibition of cell viability, respectively, by the drug was calculated using GraphPad Prism 5.0. Statistical comparisons among IC50 values were performed by the analysis of variance (ANOVA) followed by the Tukey test, and differences were considered statistically significant at p ≤ 0.05.

[2] = system: HepG2 cells; experiment: MTT assay (mitochondrial activity), HepG2; assay type: cell-based, human
Protocol: as §1, §2
(§5) MTT assay. The metabolic activity of living cells was assessed by the measurement of the activity of dehydrogenases. After incubation of the cells with the study compound, 10 μL of the MTT solution (5 mg/mL in phosphate buffered saline (PBS)) was added to each well of the 96-well plate and incubated. After 3 h, the MTT solution was removed, and intracellular formazan crystals were dissolved in 100 μL DMSO. The plate was shaken for 15 min at room temperature and transferred to a microplate reader (Synergy HTX multi-mode reader (BioTek® Instruments Inc., Winooski, VT, USA)) to measure the absorbance at 570 nm, using a blank as a reference. Cytotoxicity was expressed as a percentage of the negative control (0.1% DMSO).
as §4

[3] = system: Balb/c 3T3 fibroblasts; experiment: MTT assay (mitochondrial activity), Balb/c 3T3; assay type: cell-based, murine
Protocol: as §1, §2, §5, §4

[4] = system: Balb/c 3T3 fibroblasts; experiment: TPC assay (total protein content), Balb/c 3T3; assay type: cell-based, murine
Protocol: as §1, §2
(§6) TPC assay. The assay was based upon staining total cellular protein (proliferation). After the incubation, the medium containing drug was removed and 100 μL of Coomassie brilliant blue R-250 dye was added to each well. The plate was shaken for 10 min. Then, the stain was removed and the cells were rinsed twice with 100 μL of washing solution (glacial acetic acid/ethanol/water, 5:10:85, v:v:v). After that, 100 μL of the desorbing solution (1 M potassium acetate) was added, and plates were shaken again for 10 min. The absorbance was measured at 595 nm in a microplate reader (Synergy HTX multi-mode reader (BioTek® Instruments Inc., Winooski, VT, USA)) using a blank as a reference. Cytotoxicity was expressed as a percentage of the negative control (0.1% DMSO).
as §4

[5] = system: HepG2 cells; experiment: NRU assay (lysosomal activity), HepG2; assay type: cell-based, human
Protocol: as §1, §2
(§7) NRU assay. This method is based on staining living cells with neutral red which readily diffuses through the plasma membrane and accumulates in lysosomes. After the incubation, the medium containing the drug was removed, and the cells were washed with PBS. Then, 100 μL/well of NR solution (50 μg/mL) was added for 3 h. After this time, the cells were washed with PBS. The dye from viable cells was released by extraction with a mixture of acetic acid, ethanol, and water (1:50:49, v:v:v). After 10 min of shaking, the absorbance of the dissolved NR was measured using a Synergy HTX multi-mode reader (BioTek® Instruments Inc., Winooski, VT, USA) at 540 nm using a blank as a reference. Cytotoxicity was expressed as a percentage of the negative control (0.1% DMSO).
as §4

[6] = system: HepG2 cells; experiment: LDH leakage assay (cellular membrane integrity), HepG2; assay type: cell-based, human
Protocol: as §1, §2
as §3, with “reference. […]” for “reference.”

[7] = system: HepG2 cells; experiment: TPC assay (total protein content), HepG2; assay type: cell-based, human
Protocol: as §1, §2, §6, §4

[8] = system: Balb/c 3T3 fibroblasts; experiment: NRU assay (lysosomal activity), Balb/c 3T3; assay type: cell-based, murine
Protocol: as §1, §2, §7, §4

[9] = system: Balb/c 3T3 fibroblasts; experiment: Cytotoxicity over the MTT, NRU, TPC and LDH assays, Balb/c 3T3; assay type: cell-based, murine; conditions: Balb/c 3T3, up to 1 μM, Figure S5
Protocol: as §1, with “The medium was refreshed every two days and the cells were trypsinized by 0.25% trypsin–0.02% EDTA after reaching 70–80% confluence. Then, cell suspensions at a density of 2 × 10^5 cells/mL (HepG2) and 5 × 10^4 cells/mL (Balb/c 3T3) were transferred to 96-well plates (100 μL/well) and incubated for 24 h before the exposure to the studied compounds.” left out
(§8) As a control, cultured cells were grown in the absence of the studied compounds. […] Cytotoxicity was assessed after 72 h of cell exposure to the compounds in darkness. […]
(§9) MTT assay. The metabolic activity of living cells was assessed by the measurement of the activity of dehydrogenases. […] The plate was shaken for 15 min at room temperature and transferred to a microplate reader (Synergy HTX multi-mode reader (BioTek® Instruments Inc., Winooski, VT, USA)) to measure the absorbance at 570 nm, using a blank as a reference. Cytotoxicity was expressed as a percentage of the negative control (0.1% DMSO).
(§10) NRU assay. […] Cytotoxicity was expressed as a percentage of the negative control (0.1% DMSO). […]

[10] = system: human cancer cells (breast, bladder, colorectal cancer cell lines, acute myelogenous leukemia, osteosarcoma cells); set-up: method as in PMID 26286663; conditions: cited from earlier work
[11] = cited from earlier work
[12] = system: HepG2 cells; experiment: Cytotoxicity over the MTT, NRU, TPC and LDH assays, HepG2; assay type: cell-based, human; conditions: HepG2, up to 1 μM, Figure S5
Protocol: as §1, with “The medium was refreshed every two days and the cells were trypsinized by 0.25% trypsin–0.02% EDTA after reaching 70–80% confluence. Then, cell suspensions at a density of 2 × 10^5 cells/mL (HepG2) and 5 × 10^4 cells/mL (Balb/c 3T3) were transferred to 96-well plates (100 μL/well) and incubated for 24 h before the exposure to the studied compounds.” left out
as §8, §9, §10

[13] = Balb/c 3T3, LDH, 72 h exposure, mean (n = 3) ± SD
[14] = HepG2, MTT, 72 h exposure, mean (n = 3) ± SD
[15] = Balb/c 3T3, MTT, 72 h exposure, mean (n = 3) ± SD
[16] = Balb/c 3T3, TPC, 72 h exposure, mean (n = 3) ± SD
[17] = HepG2, NRU, 72 h exposure, mean (n = 3) ± SD
[18] = HepG2, TPC, 72 h exposure, mean (n = 3) ± SD
[19] = Balb/c 3T3, NRU, 72 h exposure, mean (n = 3) ± SD

O=[N+]([O-])[O-].[Ag+] [AgNO3, Silver nitrate]
IC20 [1]: > 1 µM | IC50 [1]: > 1 µM | IC20 [2]: > 1 µM | IC50 [2]: > 1 µM | IC20 [3]: > 1 µM | IC50 [3]: > 1 µM | IC20 [4]: > 1 µM | IC50 [4]: > 1 µM | IC20 [5]: > 1 µM | IC50 [5]: > 1 µM | IC20 [6]: > 1 µM | IC50 [6]: > 1 µM | IC20 [7]: > 1 µM | IC50 [7]: > 1 µM | IC20 [8]: > 1 µM | IC50 [8]: > 1 µM

N.N.[Cl][Pt][Cl] [Cisplatin, cis-diamminedichloroplatinum(II)]
IC20 [1, 13]: > 1 µM | IC50 [1, 13]: > 1 µM | IC20 [2, 14]: < 0.0001 µM | IC50 [2, 14]: > 1 µM | IC20 [3, 15]: > 1 µM | IC50 [3, 15]: > 1 µM | IC20 [4, 16]: > 1 µM | IC50 [4, 16]: > 1 µM | IC20 [5, 17]: < 0.0001 µM | IC50 [5, 17]: > 1 µM | IC50 ([6]; HepG2, LDH, 72 h exposure, mean (n = 3) ± SD): 0.01 ± 0.001 µM | IC20 [7, 18]: < 0.0001 µM | IC50 [7, 18]: > 1 µM | IC20 [8, 19]: > 1 µM | IC50 [8, 19]: > 1 µM

Clc1ccc(COC(Cn2ccnc2)c2ccc(Cl)cc2Cl)c(Cl)c1 (stereo not shown) [Miconazole, 1-[2-(2,4-dichlorobenzyloxy)-2-(2,4-dichlorophenyl)ethyl]-1H-imidazole]
toxicity to the cell line (in words) [9]: not toxic | concentration inhibiting the proliferation of human cancer cells [10]: ≤ 10 µM | solubility ([11]; ethanol): soluble | solubility ([11]; methanol): hardly soluble | solubility ([11]; water): practically insoluble | toxicity to the cell line (in words) [12]: not toxic
